This is an account of results in ChEMBL document CHEMBL1150207, “Cytotoxicities of some flavonoid analogues” (1991).

What all share (assay type): functional
One experiment deals with A549. Nature of the experiment: Cytotoxicity against human A549 cells after 6 days by MTT assay. The settings on record: A549, 144 h, read-out: ED50 (the source's name).
A further experiment concerns MCF7. Nature of the experiment: Cytotoxicity against human MCF7 cells after 6 days by MTT assay. The conditions noted are these: MCF7, 144 h, read-out: ED50 (the source's name). For orientation: Tetrazolium dyes change colour on reduction, which living cells bring about.
The test system of another experiment is HT-29. Nature of the experiment: Cytotoxicity against human HT-29 cells after 6 days by MTT assay. The conditions noted are these: HT-29, 144 h, read-out: ED50 (the source's name).
In the next experiment the test system is SK-MEL. Nature of the experiment: Cytotoxicity against human SK-MEL cells after 6 days by MTT assay. The settings on record: 144 h, read-out: ED50 (the source's name).
The subject of the next experiment is Malme-3M. Nature of the experiment: Cytotoxicity against human MALME-3M cells after 6 days by MTT assay. The conditions noted are these: 144 h, read-out: ED50 (the source's name).

Values after ≈ are worked out from the molar mass of the structure shown.

For the compound `O=C(O)c1c(-c2ccc(Br)cc2)oc2ccccc2c1=O`, the EC50 in the experiment with A549, in the experiment with MCF7, with HT-29, in the experiment with SK-MEL and with Malme-3M was over 25 µg/mL each time.
Regarding `Nc1ccc(-c2cc(=O)c3ccc(O)cc3o2)cc1`, the EC50 was 8.87 µg/mL (≈ 35 µM) in the experiment on A549; over 25 µg/mL in the experiment on MCF7; 4.71 µg/mL (≈ 18.6 µM) in the experiment on HT-29; 6.59 µg/mL (≈ 26 µM) in the experiment with SK-MEL; over 25 µg/mL in the experiment on Malme-3M.
`COC(=O)c1c(-c2cc(OC)c(OC)c(OC)c2)oc2ccccc2c1=O`: the EC50 in the experiment on A549, with MCF7, in the experiment with HT-29, in the experiment on SK-MEL and with Malme-3M was over 25 µg/mL in each case.
Consider `O=C(O)c1c(-c2ccc([N+](=O)[O-])cc2)oc2ccccc2c1=O`, for which the EC50 with A549, with MCF7, in the experiment on HT-29, in the experiment on SK-MEL and with Malme-3M was over 25 µg/mL in each case.
Consider `COC(=O)c1c(-c2ccc([N+](=O)[O-])cc2)oc2ccccc2c1=O`, for which the EC50 with A549, in the experiment with MCF7, in the experiment on HT-29, with SK-MEL and in the experiment with Malme-3M was over 25 µg/mL each time.
`COC(=O)c1c(-c2ccc(O)cc2)oc2cc(OC)ccc2c1=O`: the EC50 in the experiment with A549 was over 25 µg/mL; in the experiment on MCF7 it was over 25 µg/mL; with HT-29 it was 19.2 µg/mL (≈ 58.9 µM); in the experiment with SK-MEL, 19.6 µg/mL (≈ 59.9 µM); in the experiment on Malme-3M it was 20.1 µg/mL (≈ 61.6 µM).
Take `COC(=O)c1c(-c2ccc([N+](=O)[O-])cc2)oc2ccc(OC)cc2c1=O`: the EC50 with A549 was over 25 µg/mL; in the experiment with MCF7, over 25 µg/mL; with HT-29, over 25 µg/mL; in the experiment with SK-MEL, 8.18 µg/mL (≈ 23 µM); with Malme-3M it was 24.1 µg/mL (≈ 67.8 µM).
For `Nc1ccc(-c2cc(=O)c3cc(O)ccc3o2)cc1`, the EC50 was 2.72 µg/mL (≈ 10.7 µM) with A549; over 25 µg/mL in the experiment on MCF7; 2.65 µg/mL (≈ 10.5 µM) with HT-29; 2.03 µg/mL (≈ 8.02 µM) in the experiment with SK-MEL; over 25 µg/mL in the experiment with Malme-3M.
Consider `COc1ccc(-c2oc3ccccc3c(=O)c2C(=O)O)cc1`, for which the EC50 in the experiment with A549, with MCF7, in the experiment on HT-29, in the experiment with SK-MEL and with Malme-3M was over 25 µg/mL each time.
Regarding `COC(=O)c1c(-c2ccc(Br)cc2)oc2ccccc2c1=O`, the EC50 in the experiment on A549, with MCF7, in the experiment with HT-29, in the experiment with SK-MEL and in the experiment with Malme-3M was over 25 µg/mL in each case.
Take `COC(=O)c1c(-c2ccc(OC)cc2)oc2ccccc2c1=O`: the EC50 in the experiment with A549, in the experiment with MCF7, in the experiment on HT-29, in the experiment with SK-MEL and in the experiment with Malme-3M was over 25 µg/mL each time.
Consider `Nc1ccc(-c2cc(=O)c3c(O)cc(O)cc3o2)cc1`, for which the EC50 is 2.84 µg/mL (≈ 10.5 µM) in the experiment on A549; over 25 µg/mL with MCF7; 3.44 µg/mL (≈ 12.8 µM) in the experiment on HT-29; 3.86 µg/mL (≈ 14.3 µM) in the experiment on SK-MEL; over 25 µg/mL with Malme-3M.
As for `COC(=O)c1c(-c2ccc(O)cc2)oc2ccc(OC)cc2c1=O`, the EC50 with A549 was over 25 µg/mL; in the experiment on MCF7, over 25 µg/mL; in the experiment with HT-29, over 25 µg/mL; with SK-MEL it was 18.7 µg/mL (≈ 57.3 µM); in the experiment with Malme-3M, over 25 µg/mL.
With `COc1ccc(-c2oc3ccccc3c(=O)c2C(=O)O)cc1OC`, the EC50 in the experiment on A549, with MCF7, in the experiment with HT-29, in the experiment on SK-MEL and in the experiment with Malme-3M was over 25 µg/mL throughout.
Regarding `COc1ccc2oc(-c3ccc([N+](=O)[O-])cc3)c(C(=O)O)c(=O)c2c1`, the EC50 is over 25 µg/mL in the experiment on A549; 15.8 µg/mL (≈ 46.4 µM) in the experiment on MCF7; over 25 µg/mL in the experiment with HT-29; over 25 µg/mL in the experiment on SK-MEL; over 25 µg/mL in the experiment with Malme-3M.
Turning to `COC(=O)c1c(-c2ccc(OCc3ccccc3)cc2)oc2ccc(OC)cc2c1=O`, the EC50 is 22.1 µg/mL (≈ 53 µM) with A549; over 25 µg/mL in the experiment on MCF7; 15.6 µg/mL (≈ 37.4 µM) in the experiment with HT-29; 20.9 µg/mL (≈ 50.1 µM) in the experiment on SK-MEL; over 25 µg/mL in the experiment on Malme-3M.
On to `O=c1cc(-c2ccc([N+](=O)[O-])cc2)oc2cc(O)ccc12`, for which the EC50 was 21.8 µg/mL (≈ 76.9 µM) in the experiment on A549; over 25 µg/mL in the experiment on MCF7; 6.95 µg/mL (≈ 24.5 µM) with HT-29; over 25 µg/mL in the experiment with SK-MEL; over 25 µg/mL in the experiment with Malme-3M.
As for `COc1cc(-c2oc3ccccc3c(=O)c2C(=O)O)cc(OC)c1OC`, the EC50 in the experiment with A549, with MCF7, in the experiment on HT-29, with SK-MEL and in the experiment with Malme-3M was over 25 µg/mL each time.
Consider `O=c1cc(-c2ccc([N+](=O)[O-])cc2)oc2ccc(O)cc12`, for which the EC50 in the experiment with A549 was 5.07 µg/mL (≈ 17.9 µM); with MCF7 it was over 25 µg/mL; with HT-29, over 25 µg/mL; in the experiment on SK-MEL it was 21 µg/mL (≈ 74.2 µM); in the experiment on Malme-3M, over 25 µg/mL.
`COC(=O)c1c(-c2ccc(OCc3ccccc3)cc2)oc2ccccc2c1=O`: the EC50 in the experiment with A549, in the experiment with MCF7, in the experiment with HT-29, in the experiment on SK-MEL and in the experiment with Malme-3M was over 25 µg/mL each time.
As to `COc1cc(OC)cc(-c2oc3ccccc3c(=O)c2C(=O)O)c1`, the EC50 with A549, in the experiment on MCF7, with HT-29, in the experiment on SK-MEL and with Malme-3M was over 25 µg/mL each time.
For `COC(=O)c1c(-c2ccc(NC(C)=O)cc2)oc2cc(OC)ccc2c1=O`, the EC50 in the experiment on A549 worked out at 9.76 µg/mL (≈ 26.6 µM); in the experiment with MCF7 it was 9.19 µg/mL (≈ 25 µM); in the experiment on HT-29, 8.21 µg/mL (≈ 22.3 µM); with SK-MEL, 15.9 µg/mL (≈ 43.4 µM); with Malme-3M, 9.26 µg/mL (≈ 25.2 µM).
For `COC(=O)c1c(-c2ccc(OC)c(OC)c2)oc2ccccc2c1=O`, in that order: over 25 µg/mL, over 25 µg/mL, over 25 µg/mL, over 25 µg/mL and over 25 µg/mL.
Take `COC(=O)c1c(-c2ccc(O)cc2)oc2ccccc2c1=O`: the EC50 in the experiment on A549, in the experiment on MCF7, with HT-29, in the experiment with SK-MEL and in the experiment with Malme-3M was over 25 µg/mL throughout.
Consider `COC(=O)c1c(-c2cc(OC)cc(OC)c2)oc2ccccc2c1=O`, for which the EC50 with A549 is over 25 µg/mL; with MCF7 it was over 25 µg/mL; with HT-29 it was 6.99 µg/mL (≈ 20.5 µM); with SK-MEL, over 25 µg/mL; with Malme-3M, over 25 µg/mL.
On to `O=c1cc(-c2ccc([N+](=O)[O-])cc2)oc2cc(O)cc(O)c12`, for which the EC50 is 4.19 µg/mL (≈ 14 µM) with A549; 6.9 µg/mL (≈ 23.1 µM) in the experiment on MCF7; 3.34 µg/mL (≈ 11.2 µM) in the experiment with HT-29; 4.87 µg/mL (≈ 16.3 µM) with SK-MEL; over 25 µg/mL with Malme-3M.
As for `COC(=O)c1c(-c2ccc([N+](=O)[O-])cc2)oc2cc(OC)ccc2c1=O`, the EC50 with A549 was over 25 µg/mL; with MCF7 it was over 25 µg/mL; in the experiment on HT-29 it was over 25 µg/mL; with SK-MEL it was 2.84 µg/mL (≈ 7.99 µM); in the experiment with Malme-3M, 1.12 µg/mL (≈ 3.15 µM).
For `COC(=O)c1c(-c2ccc(OCc3ccccc3)cc2)oc2cc(OC)ccc2c1=O`, the EC50 in the experiment with A549 is 20.4 µg/mL (≈ 49.1 µM); in the experiment on MCF7, 5.16 µg/mL (≈ 12.4 µM); in the experiment on HT-29, 5.42 µg/mL (≈ 13 µM); in the experiment with SK-MEL it was over 25 µg/mL; in the experiment with Malme-3M, over 25 µg/mL.
As for `COc1ccc2c(=O)c(C(=O)O)c(-c3ccc([N+](=O)[O-])cc3)oc2c1`, the EC50 with A549, in the experiment with MCF7, with HT-29, in the experiment with SK-MEL and in the experiment on Malme-3M was over 25 µg/mL in each case.
Consider `COC(=O)c1c(-c2ccc(N)cc2)oc2ccccc2c1=O`, for which the EC50 in the experiment with A549, in the experiment with MCF7, in the experiment with HT-29, in the experiment on SK-MEL and with Malme-3M was over 25 µg/mL each time.
In the case of `O=c1cc(-c2ccc([N+](=O)[O-])cc2)oc2c(O)c(O)ccc12`, the EC50 came out at 2.56 µg/mL (≈ 8.56 µM) with A549; 4.69 µg/mL (≈ 15.7 µM) in the experiment on MCF7; 3.46 µg/mL (≈ 11.6 µM) with HT-29; 3.29 µg/mL (≈ 11 µM) in the experiment with SK-MEL; 3.61 µg/mL (≈ 12.1 µM) in the experiment with Malme-3M.
As for `COc1cc(-c2cc(=O)c3ccc(O)c(O)c3o2)cc(OC)c1OC`, the EC50 is 5.27 µg/mL (≈ 15.3 µM) with A549; 1.11 µg/mL (≈ 3.22 µM) in the experiment with MCF7; 3.66 µg/mL (≈ 10.6 µM) with HT-29; over 25 µg/mL in the experiment with SK-MEL; over 25 µg/mL with Malme-3M.
As for `COc1cc(-c2cc(=O)c3ccc(O)cc3o2)cc(OC)c1OC`, the EC50 with A549, in the experiment with MCF7, in the experiment on HT-29, in the experiment on SK-MEL and in the experiment with Malme-3M was over 25 µg/mL each time.
For `CC(=O)Nc1ccc(-c2cc(=O)c3ccc(OC(C)=O)cc3o2)cc1`, the EC50 with A549 is 20.5 µg/mL (≈ 60.9 µM); with MCF7, 19.2 µg/mL (≈ 56.9 µM); in the experiment on HT-29, 19.8 µg/mL (≈ 58.7 µM); with SK-MEL, 16.9 µg/mL (≈ 50.1 µM); in the experiment with Malme-3M it was over 25 µg/mL.
With `CC(=O)Nc1ccc(-c2cc(=O)c3c(OC(C)=O)cc(OC(C)=O)cc3o2)cc1`, the EC50 in the experiment on A549 was 22 µg/mL (≈ 55.6 µM); with MCF7 it was 1.78 µg/mL (≈ 4.5 µM); in the experiment on HT-29, 17.4 µg/mL (≈ 44 µM); with SK-MEL it was 14 µg/mL (≈ 35.3 µM); in the experiment on Malme-3M it was over 25 µg/mL.
For `COc1cc(-c2cc(=O)c3cc(O)ccc3o2)cc(OC)c1O[Si](C)(C)C(C)(C)C`, in that order: 3.19 µg/mL (≈ 7.44 µM), 2.01 µg/mL (≈ 4.69 µM), 2.63 µg/mL (≈ 6.14 µM), 2.95 µg/mL (≈ 6.88 µM) and 5.3 µg/mL (≈ 12.4 µM).
For `COc1cc(-c2cc(=O)c3cc(O)ccc3o2)cc(OC)c1OC`, in that order: 9.82 µg/mL (≈ 29.9 µM), over 25 µg/mL, 7.85 µg/mL (≈ 23.9 µM), 5.87 µg/mL (≈ 17.9 µM) and over 25 µg/mL.
Taken in the same sequence, the figures for `COc1ccc2oc(-c3ccc(O)cc3)c(C(=O)O)c(=O)c2c1` were over 25 µg/mL, over 25 µg/mL, over 25 µg/mL, over 25 µg/mL and over 25 µg/mL.
